{
  "source": "BindingDB's records for doi:10.7270/Q2XS5SSN",
  "about": "(Nmmlsc, 2010)",
  "molecular_target": "T1, GTPase KRas [1-37] (Homo sapiens, UniProt G3V5T7)",
  "T1 construct": "1-37",
  "T1 sequence (G3V5T7 whole entry)": "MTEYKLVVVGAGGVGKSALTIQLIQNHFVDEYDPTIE",
  "assay": "Ras wt fluorescent GTP loading blockade – biochemical, wildtype, multiplex bead flow cytometry, dose response (AID 1335)",
  "note": "pEC50: −log10 of the molar value.",
  "data": [
    {"smiles": "Cc1cc(C(=O)O)sc1CNCc1ccccc1Cl", "note": "[5-[[(2-chlorobenzyl)amino]methyl]-4-methyl-2-thenoic acid]", "values": [
      {"measurement": "pEC50", "value": 7.11}
    ]},
    {"smiles": "O=C(O)c1ccccc1OCc1ccccc1Br", "note": "[2-(2-bromobenzyl)oxybenzoic acid]", "values": [
      {"measurement": "pEC50", "value": 6.96}
    ]},
    {"smiles": "Cc1cc(C(=O)Oc2ccccc2C(=O)O)c(C)o1", "note": "[2-(2,5-dimethyl-3-furoyl)oxybenzoic acid]", "values": [
      {"measurement": "pEC50", "value": 5.44}
    ]},
    {"smiles": "CCn1cc(C=C2C(=O)c3ccccc3C2=O)c2ccccc21", "note": "[2-[(1-ethyl-3-indolyl)methylidene]indene-1,3-dione]", "values": [
      {"measurement": "pEC50", "value": 5.10}
    ]},
    {"smiles": "Cc1cc(NC(=O)CSc2nc(O)c(C#N)c(-c3ccccc3)n2)no1", "note": "[2-[(5-cyano-4-oxidanylidene-6-phenyl-1H-pyrimidin-2-yl)sulfanyl]-N-(5-methyl-1,2-oxazol-3-yl)ethanamide]", "values": [
      {"measurement": "pEC50", "value": 5.05}
    ]},
    {"smiles": "CCS(=O)(=O)N1N=C(c2cccc(NS(C)(=O)=O)c2)CC1c1ccc(C)cc1", "note": "(stereo not given) [MLS000680398]", "values": [
      {"measurement": "pEC50", "value": 5.58}
    ]},
    {"smiles": "Cc1ccc(-n2c(=O)cc(N3CCc4ccccc4C3)[nH]c2=O)cc1", "values": [
      {"measurement": "pEC50", "value": 4.36}
    ]},
    {"smiles": "CC1(C)Cc2c(sc(NC(=S)NC(=O)c3ccccc3)c2C(=O)O)CO1", "note": "[2-(benzoylcarbamothioylamino)-5,5-dimethyl-4,7-dihydrothieno[2,3-c]pyran-3-carboxylic acid]", "values": [
      {"measurement": "pEC50", "value": 7.00}
    ]},
    {"smiles": "CCN1C(c2ccccc2)=C(c2ccccc2)S/C1=C/C=C1\\SC(=S)N(C)C1=O", "note": "[(5Z)-5-[(2E)-2-(3-ethyl-4,5-diphenyl-1,3-thiazol-2-ylidene)ethylidene]-3-methyl-2-sulfanylidene-1,3-thiazolidin-4-one]", "values": [
      {"measurement": "pEC50", "value": 4.47}
    ]},
    {"smiles": "O=C(O)/C=C/c1cn(Cc2ccccc2)nc1-c1cccs1", "note": "[(E)-3-(1-benzyl-3-thiophen-2-ylpyrazol-4-yl)prop-2-enoic acid]", "values": [
      {"measurement": "pEC50", "value": 5.39}
    ]}
  ]
}
